We go through 31 compounds from patent US20250171431A1, “HETEROCYCLIC INHIBITORS OF IGF-1R FOR TREATMENT OF DISEASE” (HORIZON THERAPEUTICS IRELAND DAC, priority 2023, published 2025).

Structures are written as SMILES. pIC50: −log10 of the molar value. Where only a bound is given, the exact number is not on record here.

Chain of IGF-1R (P08069 31-1367): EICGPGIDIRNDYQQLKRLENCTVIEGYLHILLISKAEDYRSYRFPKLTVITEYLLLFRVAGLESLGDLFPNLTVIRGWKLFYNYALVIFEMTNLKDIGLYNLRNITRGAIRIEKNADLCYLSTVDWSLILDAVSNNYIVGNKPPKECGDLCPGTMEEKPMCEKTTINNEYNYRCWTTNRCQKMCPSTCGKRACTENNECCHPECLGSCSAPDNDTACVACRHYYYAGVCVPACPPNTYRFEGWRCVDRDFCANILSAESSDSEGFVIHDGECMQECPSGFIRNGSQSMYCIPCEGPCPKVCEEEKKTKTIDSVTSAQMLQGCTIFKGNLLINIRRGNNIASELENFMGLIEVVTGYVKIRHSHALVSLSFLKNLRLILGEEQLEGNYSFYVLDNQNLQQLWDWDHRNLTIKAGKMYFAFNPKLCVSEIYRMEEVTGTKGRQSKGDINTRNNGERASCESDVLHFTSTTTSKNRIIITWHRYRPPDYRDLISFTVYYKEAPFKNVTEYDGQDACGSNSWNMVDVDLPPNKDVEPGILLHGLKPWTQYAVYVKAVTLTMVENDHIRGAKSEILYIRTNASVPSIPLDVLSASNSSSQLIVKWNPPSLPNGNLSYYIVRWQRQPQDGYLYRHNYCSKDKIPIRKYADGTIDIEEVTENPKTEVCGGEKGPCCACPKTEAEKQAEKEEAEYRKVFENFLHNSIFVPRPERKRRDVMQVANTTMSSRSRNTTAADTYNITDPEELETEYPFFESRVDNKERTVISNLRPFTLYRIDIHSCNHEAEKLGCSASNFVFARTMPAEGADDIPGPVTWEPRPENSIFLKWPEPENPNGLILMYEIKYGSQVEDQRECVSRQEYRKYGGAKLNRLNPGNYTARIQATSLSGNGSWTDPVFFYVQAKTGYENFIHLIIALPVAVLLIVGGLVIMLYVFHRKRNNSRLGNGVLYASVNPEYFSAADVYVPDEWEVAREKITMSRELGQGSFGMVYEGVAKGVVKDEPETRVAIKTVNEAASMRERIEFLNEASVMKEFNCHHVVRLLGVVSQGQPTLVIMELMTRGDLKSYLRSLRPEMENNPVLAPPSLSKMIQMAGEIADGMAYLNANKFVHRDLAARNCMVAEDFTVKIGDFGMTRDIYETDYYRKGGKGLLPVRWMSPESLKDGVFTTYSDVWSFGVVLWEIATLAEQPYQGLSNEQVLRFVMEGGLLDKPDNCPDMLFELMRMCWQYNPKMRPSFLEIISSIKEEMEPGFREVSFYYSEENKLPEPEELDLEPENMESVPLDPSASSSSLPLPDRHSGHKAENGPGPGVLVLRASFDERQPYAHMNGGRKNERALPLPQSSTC

The assay has as its target IGF-1R (Homo sapiens (Human), UniProt P08069). As to the kind of experiment: Example B-1: IGF-1R Assay (PC3 cells, IGF1 stimulation, AlphaLISA). In kind it is cell-based. To be noted: 200 ng/mL IGF1 stimulation, read-out: Biological Activity against IGF-1R IC50. The gist of the method: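 PC3 cells were serum-starved 2 h, treated with serially diluted compounds for 2 h, then stimulated with IGF1 (200 ng/mL final) for 30 min. Lysates were read by AlphaLISA; % inhibition was calculated relative to vehicle and EC80 controls, with IC50 values binned into ranges.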
For orientation: Alpha assays give light when donor and acceptor beads are brought close together.
With `CN(C)CC1COc2cc(Nc3nccc(Nc4cc5cccc(F)c5[nH]c4=O)n3)ccc2O1` (stereo not shown) [Compound 205, 3-(2-{2-[(dimethylamino)methyl]-2,3-dihydro-1,4-benzodioxin-6-ylamino}-4-pyrimidinylamino)-8-fluoro-1,2-dihydro-2-quinolinone], the pIC50 was not below 6.30. The figure for `CN(C)[C@H]1C[C@@H](Oc2ccc(Nc3nccc(Nc4cnc5c(c4)OCCO5)n3)cc2)C1` [Compound 260, 4-(2,3-dihydro-1,4-dioxa-5-aza-7-naphthylamino)-2-{p-[(1s,3s)-3-(dimethylamino)cyclobutoxy]phenylamino}pyrimidine] is not below 6.30; for `COc1cc(Nc2nccc(Nc3cnc4ccccc4c3)n2)ccc1O[C@H]1C[C@H](N2CCS(=O)(=O)CC2)C1` [Compound 24] it is not below 6.30; for `COc1cc(Nc2nccc(Nc3cnc4ccc(C(F)(F)F)cc4c3)n2)ccc1O[C@H]1C[C@H](N(C)C)C1` [Compound 334, 2-{3-methoxy-4-[(1r,3r)-3-(dimethylamino)cyclobutoxy]phenylamino}-4-[6-(trifluoromethyl)-3-quinolylamino]pyrimidine] it is not below 6.30. With `CN(C)[C@H]1C[C@H](Oc2ccc(Nc3nccc(Nc4cnc5c(c4)CCCC5)n3)cc2)C1` [Compound 315, 2-{p-[(1r,3r)-3-(dimethylamino)cyclobutoxy]phenylamino}-4-(5,6,7,8-tetrahydro-3-quinolylamino)pyrimidine], the pIC50 is not below 6.30. The value for `COc1cc(Nc2nccc(Nc3cnc4ccc(S(C)(=O)=O)cc4c3)n2)ccc1O[C@H]1C[C@H](N(C)C)C1` [Compound 329, 4-(6-mesyl-3-quinolylamino)-2-{3-methoxy-4-[(1r,3r)-3-(dimethylamino)cyclobutoxy]phenylamino}pyrimidine] was not below 6.30; that for `COc1cc(Nc2nccc(Nc3cnc4c(c3)C3CCC(C4)O3)n2)ccc1OCCCN1CCCCC1` (stereo not shown) [Compound 60, 2-[3-methoxy-4-(3-piperidinopropoxy)phenylamino]-4-{12-oxa-6-azatricyclo[7.2.1.0^2,7]dodeca-2(7),3,5-trien-4-ylamino}pyrimidine] was 5.70 to 6.30; that for `COc1cc(N2CCN(C3COC3)CC2)ncc1Nc1nccc(Nc2cnc3ccc(Cl)cc3c2)n1` [Compound 494, 4-(6-chloro-3-quinolylamino)-2-{4-methoxy-6-[4-(3-oxetanyl)-1-piperazinyl]-3-pyridylamino}pyrimidine] was not below 6.30. The figure for `COc1cc(Nc2nccc(Nc3ccc4ccc(Cl)nc4n3)n2)ccc1O[C@H]1C[C@@H](N(C)C)C1` [Compound 168, N4-(7-chloro-1,8-naphthyridin-2-yl)-N2-(4-((1s,3s)-3-(dimethylamino)cyclobutoxy)-3-methoxyphenyl)pyrimidine-2,4-diamine] is not below 6.30; for `COc1cc(Nc2nccc(Nc3cnc4c(c3)C3CCC4C3)n2)ccc1O[C@H]1C[C@H](N(C)C)C1` (stereo partly shown) [Compound 76, 4-(3-azatricyclo[6.2.1.02,7]undeca-2,4,6-trien-5-ylamino)-2-{3-methoxy-4-[(1r,3r)-3-(dimethylamino)cyclobutoxy]phenylamino}pyrimidine] it is not below 6.30; for `CN(C)[C@H]1C[C@H](Oc2ccc(Nc3nccc(Nc4cnc5c(c4)SCCC5)n3)cc2)C1` [Compound 318, 4-(3,4-dihydro-2H-1-thia-5-azanaphth-7-ylamino)-2-{p-[(1r,3r)-3-(dimethylamino)cyclobutoxy]phenylamino}pyrimidine] it is not below 6.30. Consider `COc1cc(Nc2nccc(Nc3cnc4ccc(Cl)cc4c3)n2)cnc1OC1CCNCC1(F)F` (stereo not shown) [Compound 257, 4-(6-chloro-3-quinolylamino)-2-[6-(3,3-difluoro-4-piperidyloxy)-5-methoxy-3-pyridylamino]pyrimidine], for which the pIC50 is not below 6.30. The value for `COc1cc(Nc2nccc(Nc3cnc4cc(F)c(F)cc4c3)n2)cnc1N1CCNC(C(F)F)C1` (stereo not shown) [Compound 482, 2-{6-[3-(difluoromethyl)-1-piperazinyl]-5-methoxy-3-pyridylamino}-4-(6,7-difluoro-3-quinolylamino)pyrimidine] was not below 6.30; that for `COc1cc(Nc2nccc(Nc3cnc4c(Cl)cccc4c3)n2)ccc1O[C@H]1CC[C@@H](N2CCOCC2)CC1` [Compound 333, 4-(8-chloro-3-quinolylamino)-2-{3-methoxy-4-[(1s,4s)-4-morpholinocyclohexyloxy]phenylamino}pyrimidine] was not below 6.30; that for `COc1ccc2cc(Nc3ccnc(Nc4ccc(O[C@H]5C[C@@H](N6CCOCC6)C5)cc4)n3)cnc2c1` [Compound 352, 4-(7-methoxy-3-quinolylamino)-2-{p-[(1s,3s)-3-morpholinocyclobutoxy]phenylamino}pyrimidine] was 5.00 to 5.70.

For the compound `Fc1cnc(Nc2ccc(O[C@H]3C[C@H](N4CCOCC4)C3)cc2)nc1Nc1cnc2ccccc2c1` [Compound 327, 5-fluoro-4-(3-quinolylamino)-2-{p-[(1r,3r)-3-morpholinocyclobutoxy]phenylamino}pyrimidine], the pIC50 was not below 6.30. The value for `COc1cc(Nc2cc(Nc3cnc4ccccc4n3)ccn2)ccc1O[C@H]1C[C@@H](N(C)C)C1` [Compound 262, 2-{3-methoxy-4-[(1s,3s)-3-(dimethylamino)cyclobutoxy]phenylamino}-4-(2-quinoxalinylamino)pyridine] was not below 6.30; that for `COc1cc(Nc2nccc(Nc3cnc4c(c3)CCCO4)n2)ccc1O[C@H]1C[C@H](N2CCOCC2)C1` [Compound 360, 4-(3,4-dihydro-2H-1-oxa-8-azanaphth-6-ylamino)-2-{3-methoxy-4-[(1r,3r)-3-morpholinocyclobutoxy]phenylamino}pyrimidine] was not below 6.30.

Turning to `COc1cc(Nc2nccc(Nc3cnc4c(c3)OCCO4)n2)ccc1OCCCN1CCOCC1` [Compound 389, 4-(2,3-dihydro-1,4-dioxa-5-aza-7-naphthylamino)-2-[3-methoxy-4-(3-morpholinopropoxy)phenylamino]pyrimidine], the pIC50 is not below 6.30. The value for `COc1cc(Nc2nccc(Nc3cnc4c(c3)C(C)(C)OC(C)(C)C4)n2)ccc1OCCCN1CCCCC1` [Compound 386, 2-[3-methoxy-4-(3-piperidinopropoxy)phenylamino]-4-(5,5,7,7-tetramethyl-7,8-dihydro-5H-6-oxa-1-azanaphth-3-ylamino)pyrimidine] was 5.70 to 6.30; that for `COc1cc(Nc2nccc(Nc3cc4cc(F)ccc4[nH]c3=O)n2)ccc1O[C@H]1C[C@@H](N(C)C)C1` [Compound 121, 6-fluoro-3-(2-{3-methoxy-4-[(1s,3s)-3-(dimethylamino)cyclobutoxy]phenyl-amino}-4-pyrimidinylamino)-1,2-dihydro-2-quinolinone] was not below 6.30. The figure for `COc1cc(Nc2nccc(Nc3cc4cccc(F)c4[nH]c3=O)n2)cnc1N1CCNC(C(C)(C)O)C1` (stereo not shown) [Compound 238, 8-fluoro-3-(2-{6-[3-(1-hydroxy-1-methylethyl)-1-piperazinyl]-5-methoxy-3-pyridylamino}-4-pyrimidinylamino)-1,2-dihydro-2-quinolinone] is not below 6.30. Take `c1cc(Nc2cnc3c(c2)OCCO3)nc(Nc2ccc(OCCCN3CCOCC3)cc2)n1` [Compound 388, 4-(2,3-dihydro-1,4-dioxa-5-aza-7-naphthylamino)-2-[p-(3-morpholinopropoxy)phenylamino]pyrimidine]: the pIC50 is not below 6.30. `COc1cc(Nc2nccc(Nc3cc4cccc(F)c4[nH]c3=O)n2)cnc1OC1CC2(C1)CN(C)C2` [Compound 167, 8-fluoro-3-(2-{5-methoxy-6-(2-methyl-2-aza-6-spiro[3.3]heptyloxy)-3-pyridylamino}-4-pyrimidinylamino)-1,2-dihydro-2-quinolinone]: the pIC50 was not below 6.30. The figure for `COc1cc(Nc2nccc(Nc3cnc4cncc(F)c4c3)n2)ccc1O[C@H]1C[C@@H](N(C)C)C1` [Compound 88, N2-(4-((1s,3s)-3-(dimethylamino)cyclobutoxy)-3-methoxyphenyl)-N4-(5-fluoro-1,7-naphthyridin-3-yl)pyrimidine-2,4-diamine] is not below 6.30.

On to `COc1cc(Nc2nccc(Nc3cnc4c(c3)CC3(CCCC3)CC4)n2)ccc1O[C@H]1C[C@H](N(C)C)C1` [Compound 79, 4-(7′,8′-dihydro-5′H-spiro[cyclopentane-1,6′-quinolin]-3′-ylamino)-2-{3-methoxy-4-[(1r,3r)-3-(dimethylamino)cyclobutoxy]phenylamino}pyrimidine], for which the pIC50 was not below 6.30. The figure for `COc1cc(Nc2nccc(Nc3cnc4ccccc4c3)n2)cc(C#N)c1O[C@H]1C[C@H](N(C)C)C1` [Compound 267, 3-methoxy-5-[4-(3-quinolylamino)-2-pyrimidinylamino]-2-[(1r,3r)-3-(dimethylamino)cyclobutoxy] benzonitrile] is not below 6.30. The value for `CN(C)[C@H]1C[C@H](Oc2ccc(Nc3nccc(Nc4cnc5ccc(Br)cc5c4)n3)cc2)C1` [Compound 320, 4-(6-bromo-3-quinolylamino)-2-{p-[(1r,3r)-3-(dimethylamino)cyclobutoxy]phenylamino}pyrimidine] was not below 6.30. The value for `COc1cc(Nc2nccc(Nc3ccc4c(c3)CCC(=O)N4)n2)ccc1OCCCN1CCCCC1` [Compound 448, 6-{2-[3-methoxy-4-(3-piperidinopropoxy)phenylamino]-4-pyrimidinylamino}-3,4-dihydro-2(1H)-quinolinone] was not below 6.30; that for `COc1cc(Nc2nccc(Nc3cnc4c(c3)CCCCC4)n2)ccc1OCCCN1CCCCC1` [Compound 57, 4-{8-azabicyclo[5.4.0]undeca-1(11),7,9-trien-10-ylamino}-2-[3-methoxy-4-(3-piperidinopropoxy)phenylamino] pyrimidine] was not below 6.30; that for `COc1cc(Nc2nccc(Nc3cnc4c(c3)C3CCC4CC3)n2)ccc1O[C@H]1C[C@H](N(C)C)C1` [Compound 75, 4-{3-azatricyclo[6.2.2.02,7]dodeca-2(7),3,5-trien-5-ylamino}-2-{3-methoxy-4-[(1r,3r)-3-(dimethylamino)cyclobutoxy]phenylamino}pyrimidine] was not below 6.30.

Broadly, the pIC50 is −log10 of the IC50, conventionally taken in molar units.
